Row | SMILES | melting point [°C]
1 | O=C(O)CC1=Cc2ccccc2C1 | 114 to 115
2 | Cc1ccc2c(Sc3cc(Cl)cc(Cl)c3)c(CC(N)=O)[nH]c2c1 | 197
3 | CC(C)(C)OC(=O)N1Cc2c(Br)sc(Br)c2C1 | 144 to 145
4 | CC(=O)Oc1cccc(CCNC(=O)/C=C/c2cccnc2)c1 | 99
5 | CN(C)c1ncnc2c1ncn2Cc1c(F)cccc1Cl | 134 to 135
6 | O=C(Cc1ccc(Cl)cc1)Nc1ccc(-n2nc(C(F)(F)F)cc2C(F)(F)F)cc1 | 122 to 124
7 | CCCN1CCN(Cc2ccc3c(c2O)OCO3)CC1 | 115 to 117
8 | O=C(C1=COc2cc(O)ccc2O1)N1CCN(C(c2ccc(F)cc2)c2ccc(F)cc2)CC1 | 163
9 | Cc1ccc2c(c1)c(Sc1ccc(Cl)cc1)c(C)n2CC(=O)O | 219 to 221
10 | COC(=O)c1ccc2oc3c(c(=O)c2c1)CCC3=Cc1ccccc1C | 203 to 205
11 | CC1C(C)(C)C2=C(c3ncncc3CC2)C1(C)C (stereo not drawn) | 80
12 | CCOC(=O)CNS(=O)(=O)c1sccc1C=O | 74 to 76
13 | CN(C)Cc1cc(CCCCCCCOc2ccc(C3=NCCO3)cc2)on1 | 69.5 to 70
14 | CCCC12CCC3=C(CCc4cc(O)ccc43)C1CCC2O (stereo not drawn) | 210 to 218
15 | N#Cc1cccc(C2OCCO2)n1 | 64
16 | COc1ccc2c(c1)C(=O)CCC21CCC(=O)NC1=O (stereo not drawn) | 214 to 215
17 | CN(C)/C=C/c1cc(OC2CCN(C(=O)OC(C)(C)C)CC2)ccc1C#N | 135 to 137
18 | Cc1nc(N)nc(N)c1C#CCc1ccccc1 | 145 to 149
19 | CCN1CCC(C(=O)NO)(S(=O)(=O)c2ccc(Oc3ccc(Cl)cc3)cc2)CC1 | 158
20 | COc1cccc2c1CC(C(=O)O)N2S(=O)(=O)c1ccc(-c2ccc(F)cc2Cl)cc1 (stereo not drawn) | 137 to 138
21 | NS(=O)(=O)c1cc2[nH]c(=O)ccc2s1 | > 300
22 | NS(=O)(=O)c1ccc(-c2noc(-c3cnn4c(C(F)(F)F)cc(-c5ccc(C(F)(F)F)cc5)nc34)n2)s1 | 276
23 | CCOC(=O)C1(Cc2cccc(C)c2Br)CN(Cc2ccccc2)CCC1=O (stereo not drawn) | 60 to 61

Row | SMILES | melting point [°C]
24 | CCOC(=O)CN1C(=O)C(C(C)C)N(C(C)=O)C=C1c1ccccc1 (racemic) | 96 to 98
25 | NC(Cc1cccc(C(F)(F)F)c1)=NO | 91 to 92
26 | CC(C)(C)C(=O)Nc1ccc(-c2ccncc2)cc1 | 274 to 279
27 | Nc1ccc(F)c(F)c1NC(=S)Nc1c(Cl)cccc1Cl | > 310
28 | CC(=O)Nc1cc(C(C)(C)C)c(Cl)cc1CN(C)C1CCCCC1 | 174 to 176
29 | CCOC(=O)COc1cnc(S)nc1O | 157 to 160
30 | O=C(Nc1ccc([N+](=O)[O-])cc1)c1ccccc1Br | 200 to 202
31 | CC(C)(C)OC(=O)NCC(N)c1c[nH]c2cc(Br)ccc12 (stereo not drawn) | 80
32 | CCOCc1nc2c(N)nc3ccc(O)cc3c2n1CC(C)(C)NC(=O)C1CCCCC1 | 231 to 232
33 | CCOC(=O)c1cc(=O)cc(-c2ccccc2OC)o1 | 78 to 81
34 | COc1cncc(OC)c1CCCO | 88 to 89
35 | Cc1ccc(NC(=O)c2cc(Cl)ccc2NCC2CCN(C3CCSC3)CC2)nc1 (stereo not drawn) | 151 to 153
36 | CCOC(=O)c1cc2c3n(ccc-2n1)CC(C(F)(F)F)=N3 | 230 to 231
37 | CC(=O)Nc1c(C(=O)c2ccccc2)[nH]c2ccc(Br)cc12 | 192 to 194
38 | CC1=NN(C)C(=O)C1C(=O)Nc1cccc2c1CCC2(C)C (stereo not drawn) | 141
39 | CC(C)(C)OC(=O)N[C@@H](CC1CCCCC1)[C@@H](O)[C@@H](O)C1CC1 | 83 to 85
40 | Cn1nc(C(F)(F)F)n(-c2ccc(F)cc2)c1=S | 94 to 96
41 | COc1ccc2occ(N)c(=O)c2c1 | 98 to 100
42 | O=C(CC1c2ccccc2C(=O)N1c1ccc(Cl)cn1)N1CCCCC1 (stereo not drawn) | 165 to 166
43 | CCOC(=O)CCc1c(O)ccc2ccc(OCC(=O)OCC)cc12 | 112 to 113
44 | N#Cc1cc(C(=O)N2CCC[C@H](c3nc(-c4ccc(F)cc4)no3)C2)ccc1F | 144 to 146
45 | CS(=O)(=O)N1CCS(=O)c2ccccc2C1 (stereo not drawn) | 195 to 197
46 | CC(=S)NC[C@H]1CN(c2ccc(N3CCN(C(=O)CO)CC3)c(F)c2)C(=O)O1 | 163 to 165

Row | SMILES | melting point [°C]
47 | CC(C)(C)OC(=O)C1CCCN(C(=O)OCc2ccccc2)N1C(=O)C(Br)CCBr (stereo not drawn) | 81 to 82
48 | COC(=O)C1CC(O)CN1C(=O)c1ccc(OC)c(OC)c1 (stereo not drawn) | 174
49 | Cc1nnc(-c2ccnc(NCc3cccc(C(F)(F)F)c3)c2)o1 | 141 to 142
50 | COCCN1C(=O)CCCc2cc(N)ccc21 | 134 to 135
51 | C[C@@H](Nc1ncnc2cc(N)ncc12)c1ccccc1 | 232
52 | CCN1CCCC(N2C(=O)c3ccc([N+](=O)[O-])cc3C2=O)C1 (stereo not drawn) | > 300
53 | CC(C)(C)c1cc(/C=C/c2n[nH]c(=S)s2)cc(C(C)(C)C)c1O | 248 to 249
54 | CC[C@H](Cn1cnnc1)n1cnc2cc3c(=O)n([C@H](CC)Cn4ncnn4)cnc3cc2c1=O | 130 to 132
55 | COc1ccc(-c2nc(Sc3ccc(F)cc3F)[nH]c2-c2ccc(OC)cc2)cc1 | 174 to 176
56 | COCC#CCCCCC12OCC(C(C)(C)C)(CO1)CO2 | 47 to 49
57 | NCc1ccccc1NC1CCN(Cc2ccccc2)CC1 | 117 to 118
58 | Cc1ccc(S(=O)(=O)N2[C@H](CCCNS(C)(=O)=O)CC[C@@H]2c2ccc(F)cc2)cc1 (racemic) | 123
59 | CC(C)Cc1nc(-c2ccccc2)cnc1O | 205 to 207
60 | O=S1(=O)N(CCCN2CCN(c3ccc(O)cc3)CC2)c2cccc3c2N1CCC3 | 182
61 | NC(=O)NC(=O)c1ccccc1 | 175
62 | Cc1cc(COc2c(Cl)cc(CCl)cc2Cl)oc(=O)c1 | 136
63 | COc1cc([N+](=O)[O-])c2nc(C(F)(F)F)cc(O)c2c1 | 138 to 140
64 | Cc1ccc2c(c1)c1c(n2Cc2ccccc2)CCCC1C(=O)O (stereo not drawn) | 200 to 208
65 | Cc1cccc(N(C)c2nc(Cl)nc(Cl)n2)c1C | 140 to 141
66 | Cc1nsc(CCCOc2c(C)cc(-c3noc(C)n3)cc2C)n1 | 67 to 71
67 | C=C1C[C@@H](C(=O)O)[C@H](C(=O)O)C1 (relative stereo) | 178 to 179

Further lines, results first:

Row | melting point [°C] | SMILES
68 | 141 to 143 | CC(=O)Nc1cc(C(O)CN(Cc2ccccc2)C(C)Cc2ccc(O)cc2)ccc1OCc1ccccc1 (stereo not drawn)
69 | 111 to 112 | CC(C)c1cc(CCCOc2ncccc2CC(=O)O)n(Cc2ccc(Cl)cc2Cl)n1
70 | 144 to 150 | CCCc1nc(-n2c(C)ccc2C)c(/C=C/C(=O)O)n1Cc1ccc(-c2ccccc2-c2nnn[nH]2)cc1
71 | 122 to 123 | CCCCSc1cc(C(=O)OC)cc(S(N)(=O)=O)c1Oc1ccccc1
72 | 50 to 53 | COC(=O)Cc1ccc(OCCNC(=O)C2Cc3ccccc3N2S(=O)(=O)c2ccc(-c3cc(C)ccc3Cl)cc2)cc1 (stereo not drawn)
73 | 65 to 67 | CCCCC(=O)c1ccc(-c2ccc(C(=O)Nc3ccc(OC)c(N4CCN(C)CC4)c3)cc2C)cc1
74 | 192 to 194 | CCCC(=O)Nc1ccc(C(=O)Nc2ccc3cc(CN4CCCC4)cnc3c2C)cc1
75 | 158 | COc1ccc(S(=O)(=O)N(CC(N)=O)c2ccc(Cl)cc2C(O)c2ccccc2Cl)c(OC)c1 (stereo not drawn)
76 | 149 to 151 | O=C(Nc1ccc2c(c1)NCCC2)c1cc2cc(F)ccc2n1Cc1cccc(F)c1
77 | 147 to 148 | CCC(C)(C)c1ccc(OCCCCNC(=O)c2cc(Sc3nnnn3-c3ccccc3)c3ccccc3c2O)c(C(C)(C)CC)c1
78 | 130 to 132 | C=CCON=C(C(=O)OCC)c1csc(NC(c2ccccc2)(c2ccccc2)c2ccccc2)n1
79 | 172 to 175 | Cc1noc(NS(=O)(=O)c2ccccc2-c2cc3ccccc3[nH]2)c1C
80 | 220 to 221 | COc1ccnc(CCc2nc3cc(-c4ccc(NC(C)=O)cc4)cnc3[nH]2)c1
81 | 190 to 191 | O=C(O)Cc1ccc(NC(=O)C(COc2ccccc2Cl)NS(=O)(=O)c2ccc(Cl)cc2)cc1 (racemic)
82 | 162 to 163 | COc1ccc(-c2coc3ccc(-c4nnc(SCc5ccc(OC)c(F)c5)o4)cc23)cc1
83 | 178 to 180 | Oc1ccc2[nH]cc(C3CCN(CCCCc4c[nH]c5ccccc45)CC3)c2c1

Row | melting point [°C] | SMILES
84 | 175 to 180 | CC(C)(Oc1ccc(OC(CCC(F)(F)F)c2cccc3c2cnn3-c2ccc(C(F)(F)F)cc2)cc1)C(=O)O (racemic)
85 | 100 to 104 | O=C(O)CCC(Oc1cccc(OCc2ccccc2)c1)c1ccccc1 (racemic)
86 | 135 to 137 | O=C(COc1ccc(Cl)cc1Cc1cc(Cl)ccc1O)OCc1ccccc1
87 | 83 to 84 | COc1ccc(-c2nn(CCCCCCBr)c(=O)c3ccccc23)cc1OC
88 | 203 to 205 | COc1cc(NC(=O)c2ccccn2)ccc1Oc1ncccn1
89 | 33 to 60 | Nc1c(OCCNCc2ccccc2)cccc1[N+](=O)[O-]
90 | 184 to 186 | Cc1ccc(C(=O)Nc2ccc(NCC(C)O)c(C(F)(F)F)c2)cc1Nc1nccc(-c2cccnc2)n1 (stereo not drawn)
91 | 93 to 94 | CCN(CC)C(=O)COc1ccccc1C(O)(CC)c1cccc(Cl)c1 (stereo not drawn)
92 | 215 to 216 | CC(C)c1ccc(-c2cccc(-c3cccc(C(=O)O)c3)n2)cc1
93 | 207 to 208 | O=C(O)CCCN1CCN(C2=Nc3ccccc3Cc3ccccc32)CC1
94 | 154 to 157 | O=C(Cn1c(-c2cc([N+](=O)[O-])cc([N+](=O)[O-])c2)ncc(NC(=O)OCc2ccccc2)c1=O)NC(Cc1ccccc1)C(=O)C(F)(F)F (stereo not drawn)
95 | 172 to 173 | CS(=O)(=O)c1ccc(-n2nc(C(=O)O)cc2-c2ccc(-c3ccco3)cc2)cc1F
96 | 47 | CCC(O)(CC)c1csc(-c2cccc(OCc3ccc(CO)c(CO)c3)c2)c1
97 | 244 to 245 | O=C(O)c1cccc(-c2cccc(Oc3ccc(Cl)cc3Cl)n2)c1
98 | 177 to 178 | Cc1ccc(Sc2cccc(-c3nc(=O)c4ccccc4s3)n2)cc1
